Earlier results as cited in PubChem BioAssay AID1259409 (Chemical Carcinogenesis Research Information System (CCRIS), 2018).

Tested on: rodent chemically induced tumor inhibition, incidence and multiplicity
Experiment: CCRIS tumor inhibitor studies
Conditions: Dose [Inhibitor]: 0, Promoter: NONE USED
Text: The CCRIS database contains chemical records with carcinogenicity, mutagenicity, tumor promotion, and tumor inhibition test results. It was developed by the National Cancer Institute (NCI). Data are derived from studies cited in primary journals, current awareness tools, NCI reports, and other sources. Test results have been reviewed by experts in carcinogenesis and mutagenesis.
CCRIS provides historical information from the years 1985 - 2011. It is no longer updated.
This is an archive assay for CCRIS tumor inhibitor studies.

Compound: S=C=NCCc1ccccc1
- tumour outcome (control, treated, inhibition, significance) (Carcinogen: BENZO[A]PYRENE, 50-32-8, 12 MG/KG/D FOR 6 CONSECUTIVE DAYS (STUDY DURATION: 7 MO), Route [Inhibitor]: GAVAGE, Species: MOUSE, Strain/Sex: STRAIN-A/FEMALE, Target Tissue: Type of Lesion: LUNG: TUMOR, Dose [Carcinogen]: 100 MG/KG ONCE AFTER FOURTH INHIBITOR DOSE): 100%, 100%, 0%, not significant
- tumour outcome (control, treated, inhibition, significance) (Carcinogen: BENZO[A]PYRENE, 50-32-8, 12 MG/KG/D FOR 6 CONSECUTIVE DAYS (STUDY DURATION: 7 MO), Route [Inhibitor]: GAVAGE, Species: MOUSE, Strain/Sex: STRAIN-A/MALE, Target Tissue: Type of Lesion: LUNG: TUMOR, Dose [Carcinogen]: 100 MG/KG ONCE AFTER FOURTH INHIBITOR DOSE): 100%, 100%, 0%, not significant
- tumour outcome (control, treated, inhibition, significance) (Carcinogen: BENZO[A]PYRENE, 50-32-8, 41 MG/KG/D FOR 6 CONSECUTIVE DAYS (STUDY DURATION: 7 MO), Route [Inhibitor]: GAVAGE, Species: MOUSE, Strain/Sex: STRAIN-A/FEMALE, Target Tissue: Type of Lesion: LUNG: TUMOR, Dose [Carcinogen]: 100 MG/KG ONCE AFTER FOURTH INHIBITOR DOSE): 100%, 100%, 0%, not significant
- tumour outcome (control, treated, inhibition, significance) (Carcinogen: BENZO[A]PYRENE, 50-32-8, 41 MG/KG/D FOR 6 CONSECUTIVE DAYS (STUDY DURATION: 7 MO), Route [Inhibitor]: GAVAGE, Species: MOUSE, Strain/Sex: STRAIN-A/MALE, Target Tissue: Type of Lesion: LUNG: TUMOR, Dose [Carcinogen]: 100 MG/KG ONCE AFTER FOURTH INHIBITOR DOSE): 100%, 95%, 5%, not calculated
- tumour outcome (control, treated, inhibition, significance) (Carcinogen: BENZO[A]PYRENE, 50-32-8, 82 MG/KG/D FOR 6 CONSECUTIVE DAYS (STUDY DURATION: 7 MO), Route [Inhibitor]: GAVAGE, Species: MOUSE, Strain/Sex: STRAIN-A/FEMALE, Target Tissue: Type of Lesion: LUNG: TUMOR, Dose [Carcinogen]: 100 MG/KG ONCE AFTER FOURTH INHIBITOR DOSE): 100%, 100%, 0%, not significant
- tumour outcome (control, treated, inhibition, significance) (Carcinogen: BENZO[A]PYRENE, 50-32-8, 82 MG/KG/D FOR 6 CONSECUTIVE DAYS (STUDY DURATION: 7 MO), Route [Inhibitor]: GAVAGE, Species: MOUSE, Strain/Sex: STRAIN-A/MALE, Target Tissue: Type of Lesion: LUNG: TUMOR, Dose [Carcinogen]: 100 MG/KG ONCE AFTER FOURTH INHIBITION DOSE): 100%, 100%, 0%, not significant
- tumour outcome (control, treated, inhibition, significance) (Carcinogen: BENZO[A]PYRENE, 50-32-8, 122 MG/KG/D FOR 6 CONSECUTIVE DAYS (STUDY DURATION: 7 MO), Route [Inhibitor]: GAVAGE, Species: MOUSE, Strain/Sex: STRAIN-A/FEMALE, Target Tissue: Type of Lesion: LUNG: TUMOR, Dose [Carcinogen]: 100 MG/KG ONCE AFTER FOURTH INHIBITOR DOSE): 100%, 90%, 10%, not significant
- tumour outcome (control, treated, inhibition, significance) (Carcinogen: BENZO[A]PYRENE, 50-32-8, 122 MG/KG/D FOR 6 CONSECUTIVE DAYS (STUDY DURATION: 7 MO), Route [Inhibitor]: GAVAGE, Species: MOUSE, Strain/Sex: STRAIN-A/MALE, Target Tissue: Type of Lesion: LUNG: TUMOR, Dose [Carcinogen]: 100 MG/KG ONCE AFTER FOURTH INHIBITOR DOSE): 100%, 95%, 5%, not significant
- tumour outcome (control, treated, inhibition, significance) (Carcinogen: DIETHYLNITROSAMINE, 55-18-5, 82 MG/KG BW BY INTRAPERITONEAL INJECTION ON DAYS 13, 14 AND 15 OF AGE THEN 0.65 G/KG DIET FROM 21 TO 161 DAYS OF AGE, Route [Inhibitor]: INTRAPERITONEAL, ORAL, Species: MOUSE, Strain/Sex: C3H/MALE, Target Tissue: Type of Lesion: LIVER: ADENOMA, Dose [Carcinogen]: 4 MG/KG IN TRICAPRYLIN ONCE ON DAY 15 OF AGE): 100%, 89%, 11%, not significant
- tumour outcome (control, treated, inhibition, significance) (Carcinogen: DIETHYLNITROSAMINE, 55-18-5, N-METHYL-N-NITROSOUREA, 684-93-5, N-BUTYL-N-(4-HYDROXYBUTYL)NITROSAMINE, 3817-11-6, DIMETHY, Carcinogen: DIETHYLNITROSAMINE, 55-18-5, N-METHYL-N-NITROSOUREA, 684-93-5, N-BUTYL-N-(4-HYDROXYBUTYL)NITROSAMINE, 3817-11-6, DIMETHY, 0.1% IN THE DIET FOR 24 WK BEGINNING 1 DAY POST CARCINOGEN TREATMENT (STUDY DURATION: 28 WK), Route [Inhibitor]: ORAL, Species: RAT, Strain/Sex: F344/MALE, Target Tissue: Type of Lesion: LARGE INTESTINE: ADENOMA, Dose [Carcinogen]: 100 MG/KG BW DEN ONCE FOLLOWED BY 20 MG/KG BW MNU 4 TIMES AND 0.05% BBN IN DRINKING WATER DURING FIRST 2 WK THEN 40 MG/K): 27%, 7%, 74%, not significant
- tumour outcome (control, treated, inhibition, significance) (Carcinogen: DIETHYLNITROSAMINE, 55-18-5, N-METHYL-N-NITROSOUREA, 684-93-5, N-BUTYL-N-(4-HYDROXYBUTYL)NITROSAMINE, 3817-11-6, DIMETHY, Carcinogen: DIETHYLNITROSAMINE, 55-18-5, N-METHYL-N-NITROSOUREA, 684-93-5, N-BUTYL-N-(4-HYDROXYBUTYL)NITROSAMINE, 3817-11-6, DIMETHY, 0.1% IN THE DIET FOR 24 WK BEGINNING 1 DAY POST CARCINOGEN TREATMENT (STUDY DURATION: 28 WK), Route [Inhibitor]: ORAL, Species: RAT, Strain/Sex: F344/MALE, Target Tissue: Type of Lesion: LARGE INTESTINE: CARCINOMA, Dose [Carcinogen]: 100 MG/KG BW DEN ONCE FOLLOWED BY 20 MG/KG BW MNU 4 TIMES AND 0.05% BBN IN DRINKING WATER DURING FIRST 2 WK THEN 40 MG/K): 7%, 0%, 100%, not significant
- tumour outcome (control, treated, inhibition, significance) (Carcinogen: DIETHYLNITROSAMINE, 55-18-5, N-METHYL-N-NITROSOUREA, 684-93-5, N-BUTYL-N-(4-HYDROXYBUTYL)NITROSAMINE, 3817-11-6, DIMETHY, Carcinogen: DIETHYLNITROSAMINE, 55-18-5, N-METHYL-N-NITROSOUREA, 684-93-5, N-BUTYL-N-(4-HYDROXYBUTYL)NITROSAMINE, 3817-11-6, DIMETHY, 0.1% IN THE DIET FOR 24 WK BEGINNING 1 DAY POST CARCINOGEN TREATMENT (STUDY DURATION: 28 WK), Route [Inhibitor]: ORAL, Species: RAT, Strain/Sex: F344/MALE, Target Tissue: Type of Lesion: SMALL INTESTINE: ADENOMA, Dose [Carcinogen]: 100 MG/KG BW DEN ONCE FOLLOWED BY 20 MG/KG BW MNU 4 TIMES AND 0.05% BBN IN DRINKING WATER DURING FIRST 2 WK THEN 40 MG/K): 33%, 50%, -52%, not significant
- tumour outcome (control, treated, inhibition, significance) (Carcinogen: DIETHYLNITROSAMINE, 55-18-5, N-METHYL-N-NITROSOUREA, 684-93-5, N-BUTYL-N-(4-HYDROXYBUTYL)NITROSAMINE, 3817-11-6, DIMETHY, Carcinogen: DIETHYLNITROSAMINE, 55-18-5, N-METHYL-N-NITROSOUREA, 684-93-5, N-BUTYL-N-(4-HYDROXYBUTYL)NITROSAMINE, 3817-11-6, DIMETHY, 0.1% IN THE DIET FOR 24 WK BEGINNING 1 DAY POST CARCINOGEN TREATMENT (STUDY DURATION: 28 WK), Route [Inhibitor]: ORAL, Species: RAT, Strain/Sex: F344/MALE, Target Tissue: Type of Lesion: SMALL INTESTINE: CARCINOMA, Dose [Carcinogen]: 100 MG/KG BW DEN ONCE FOLLOWED BY 20 MG/KG BW MNU 4 TIMES AND 0.05% BBN IN DRINKING WATER DURING FIRST 2 WK THEN 40 MG/K): 7%, 14%, -100%, not significant
- tumour outcome (control, treated, inhibition, significance) (Carcinogen: DIETHYLNITROSAMINE, 55-18-5, N-METHYL-N-NITROSOUREA, 684-93-5, N-BUTYL-N-(4-HYDROXYBUTYL)NITROSAMINE, 3817-11-6, DIMETHY, Carcinogen: DIETHYLNITROSAMINE, 55-18-5, N-METHYL-N-NITROSOUREA, 684-93-5, N-BUTYL-N-(4-HYDROXYBUTYL)NITROSAMINE, 3817-11-6, DIMETHY, 0.1% IN THE DIET FOR 24 WK BEGINNING 1 DAY POST CARCINOGEN TREATMENT (STUDY DURATION: 28 WK), Route [Inhibitor]: ORAL, Species: RAT, Strain/Sex: F344/MALE, Target Tissue: Type of Lesion: THYROID: CARCINOMA, Dose [Carcinogen]: 100 MG/KG BW DEN ONCE FOLLOWED BY 20 MG/KG BW MNU 4 TIMES AND 0.05% BBN IN DRINKING WATER DURING FIRST 2 WK THEN 40 MG/K): 7%, 8%, -14%, not significant
- tumour outcome (control, treated, inhibition, significance) (Carcinogen: DIETHYLNITROSAMINE, 55-18-5, N-METHYL-N-NITROSOUREA, 684-93-5, N-BUTYL-N-(4-HYDROXYBUTYL)NITROSAMINE, 3817-11-6, DIMETHY, Carcinogen: DIETHYLNITROSAMINE, 55-18-5, N-METHYL-N-NITROSOUREA, 684-93-5, N-BUTYL-N-(4-HYDROXYBUTYL)NITROSAMINE, 3817-11-6, DIMETHY, 0.1% IN THE DIET FOR 24 WK BEGINNING 1 DAY POST CARCINOGEN TREATMENT (STUDY DURATION: 28 WK), Route [Inhibitor]: ORAL, Species: RAT, Strain/Sex: F344/MALE, Target Tissue: Type of Lesion: URINARY BLADDER: PAPILLOMA, Dose [Carcinogen]: 100 MG/KG BW DEN ONCE FOLLOWED BY 20 MG/KG BW MNU 4 TIMES AND 0.05% BBN IN DRINKING WATER DURING FIRST 2 WK THEN 40 MG/K): 7%, 33%, -371%, not significant
- tumour outcome (control, treated, inhibition, significance) (Carcinogen: DIETHYLNITROSAMINE, 55-18-5, N-METHYL-N-NITROSOUREA, 684-93-5, N-BUTYL-N-(4-HYDROXYBUTYL)NITROSAMINE, 3817-11-6, DIMETHY, Carcinogen: DIETHYLNITROSAMINE, 55-18-5, N-METHYL-N-NITROSOUREA, 684-93-5, N-BUTYL-N-(4-HYDROXYBUTYL)NITROSAMINE, 3817-11-6, DIMETHY, 0.1% IN THE DIET FOR 24 WK BEGINNING 1 WK P0ST CARCINOGEN TREATMENT (STUDY DURATION: 28 WK), Route [Inhibitor]: ORAL, Species: RAT, Strain/Sex: F344/MALE, Target Tissue: Type of Lesion: URINARY BLADDER: CARCINOMA, Dose [Carcinogen]: 100 MG/KG BW DEN ONCE FOLLOWED BY 20 MG/KG BW MNU 4 TIMES AND 0.05% BBN IN DRINKING WATER DURING FIRST 2 WK THEN 40 MG/K): 7%, 33%, -371%, not significant
